Paper PMC9186351, “Discovery of N-quinazolinone-4-hydroxy-2-quinolone-3-carboxamides as DNA gyrase B-targeted antibacterial agents” (Journal of Enzyme Inhibition and Medicinal Chemistry, 2022)
≈ marks a conversion by molar mass, not a printed value. Like-named read-outs stand apart in the source and are kept apart here.

Experiments:
MRSA/VISA strains = assay: MIC by broth microdilution, MRSA and VISA panel; format: cell-based, S. aureus; conditions: Staphylococcus aureus
Method: (§1) All of the bacterial strains used in this study were obtained from the Collection Centre of Pathogen Microorganism of Chinese Academy of Medical Sciences (CAMS-CCPM-A) in China. All of the isolates were stored at −80 °C and streaked on tryptic soy agar (TSA) plates to obtain overnight cultures. The MICs of the test compounds were determined by the broth microdilution method in accordance with the Clinical and Laboratory Standards Institute (CLSI) guidelines.[20] Cation-adjusted Mueller-Hinton broth (CAMHB) was used as the growth medium for MIC assays. Briefly, 100 μL of serially diluted compounds (starting concentrations were 64 μg/mL) in CAMH broth were added to the wells of 96-well microtiter plates. Then, 10 µL of 5 × 10^6 CFU/mL bacterial culture was added to each well. […] The MIC was defined as the lowest concentration of a compound that inhibited visual growth of the bacteria. Vancomycin was set as the positive control for this assay.

[1] = tested on: methicillin-resistant S. aureus (MRSA); assay: MIC by broth microdilution, MRSA strains; format: cell-based; conditions: Staphylococcus aureus
Method: as §1

[2] = Cytotoxicity, SRB assay, HepG2; format: cell-based, human; conditions: human, HepG2 cells, 72-h treatment (footnote), read-out: In vitro cytotoxicity CC50 (μM, mean ± SD)
Method: (§2) Cytotoxicity in terms of CC50 was determined by the SRB assay according to the protocol described in our previous publication.[16] Briefly, human HUVECs or HepG2 cells were seeded in the wells of 96-well plates at a concentration of 1 × 10^5 cells per well and incubated at 37 °C for 24 h. […] The cells were fixed with 10% trichloroacetic acid (w/v) at 4 °C for 1 h, washed five times with distilled water, and stained with 0.4% SRB solution at room temperature for another 20 min. The cells were then washed five times with 1% acetic acid and air-dried. The protein-bound dye was dissolved in 10 mM Tris-base solution and shaken for 5 min. The optical density (OD) was measured at 540 nm using a microplate reader to estimate the cell viability (%). With the viability values (%) of the cells treated by the compound at different concentrations as input, the CC50 value was determined by the non-linear regression with normalised dose-response fit implemented in GraphPad Prism version 5 software (GraphPad Software Inc., La Jolla, CA). The experiment was performed in duplicate, and paclitaxel was used as the positive drug for this assay.

HepG2 cells = assay: Cytotoxicity, SRB assay, HepG2; format: cell-based, human; conditions: 72-h treatment (footnote), read-out: In vitro cytotoxicity CC50 (μM, mean ± SD)
Method: as §2

[3] = tested on: vancomycin intermediate resistant S. aureus (VISA); assay: MIC by broth microdilution, VISA strains; format: cell-based; conditions: Staphylococcus aureus, read-out: MIC
Method: as §1

in vitro = in vitro ADME, mouse; conditions: mouse, plasma
Method: The mouse plasma was purchased from Charles River and stored at −20 °C. The stock solution of the test compound dissolved in DMSO (50 mM) was prepared and diluted to obtain a working solution at the concentration of 0.2 mM. The working solution of the control compound, i.e. propantheline, was similarly prepared (0.2 mM). Terfenadine (5 ng/mL) and tolbutamide (10 ng/mL) dissolved in acetonitrile were used as two quenching solutions.
The mouse plasma was pre-warmed at 37 °C for 15 min. The working solution of the test/control compound (2 µL) was then added to the mouse plasma (398 µL) in a 96-well plate. Next, 30 µL of the reaction mixture was sampled and moved to 300 µL of quenching solutions at each time point: 0, 5, 15, 30, 60, and 120 min for the control compound and 0, 15, 30, 60, and 120 min for the test compound. When the sampling was done, each sample was centrifuged at 4000 rpm at 4 °C for 15 min. Then, 100 µL of the supernatant was removed and mixed with 100 µL of distilled water for LC-MS/MS analysis with Shimadzu HPLC system and the AB Sciex API 4000 QTRAP instrument. The remaining compound (%) after incubation in plasma versus the incubation time was plotted. The half-life (t1/2) value of the compound was determined via linear regression from the plot.

S. aureus GyrB = biological target: T1, S. aureus GyrB (Staphylococcus aureus, UniProt P0A0K8); assay: S. aureus GyrB (Gyrase ATPase) inhibition assay, ADP-Glo; format: biochemical
T1 construct: purchased Inspiralis Ltd., Norwich, UK
T1 sequence (P0A0K8 whole entry): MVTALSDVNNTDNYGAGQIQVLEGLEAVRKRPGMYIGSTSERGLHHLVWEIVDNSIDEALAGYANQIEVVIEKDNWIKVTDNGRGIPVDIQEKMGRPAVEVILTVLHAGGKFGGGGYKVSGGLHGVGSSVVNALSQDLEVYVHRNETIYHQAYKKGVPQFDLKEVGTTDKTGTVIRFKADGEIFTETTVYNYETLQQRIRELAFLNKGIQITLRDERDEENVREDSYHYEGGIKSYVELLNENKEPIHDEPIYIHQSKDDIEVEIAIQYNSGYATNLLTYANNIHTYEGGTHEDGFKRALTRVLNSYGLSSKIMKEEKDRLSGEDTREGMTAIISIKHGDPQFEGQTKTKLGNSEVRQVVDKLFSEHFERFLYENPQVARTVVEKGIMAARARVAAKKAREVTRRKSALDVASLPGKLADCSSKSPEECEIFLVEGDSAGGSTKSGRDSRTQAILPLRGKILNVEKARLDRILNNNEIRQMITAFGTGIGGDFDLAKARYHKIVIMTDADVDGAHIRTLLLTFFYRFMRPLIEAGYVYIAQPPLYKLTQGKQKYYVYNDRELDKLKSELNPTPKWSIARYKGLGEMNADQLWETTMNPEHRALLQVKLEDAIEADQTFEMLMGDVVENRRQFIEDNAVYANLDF
T1 sequence (P20831 whole entry, further chain): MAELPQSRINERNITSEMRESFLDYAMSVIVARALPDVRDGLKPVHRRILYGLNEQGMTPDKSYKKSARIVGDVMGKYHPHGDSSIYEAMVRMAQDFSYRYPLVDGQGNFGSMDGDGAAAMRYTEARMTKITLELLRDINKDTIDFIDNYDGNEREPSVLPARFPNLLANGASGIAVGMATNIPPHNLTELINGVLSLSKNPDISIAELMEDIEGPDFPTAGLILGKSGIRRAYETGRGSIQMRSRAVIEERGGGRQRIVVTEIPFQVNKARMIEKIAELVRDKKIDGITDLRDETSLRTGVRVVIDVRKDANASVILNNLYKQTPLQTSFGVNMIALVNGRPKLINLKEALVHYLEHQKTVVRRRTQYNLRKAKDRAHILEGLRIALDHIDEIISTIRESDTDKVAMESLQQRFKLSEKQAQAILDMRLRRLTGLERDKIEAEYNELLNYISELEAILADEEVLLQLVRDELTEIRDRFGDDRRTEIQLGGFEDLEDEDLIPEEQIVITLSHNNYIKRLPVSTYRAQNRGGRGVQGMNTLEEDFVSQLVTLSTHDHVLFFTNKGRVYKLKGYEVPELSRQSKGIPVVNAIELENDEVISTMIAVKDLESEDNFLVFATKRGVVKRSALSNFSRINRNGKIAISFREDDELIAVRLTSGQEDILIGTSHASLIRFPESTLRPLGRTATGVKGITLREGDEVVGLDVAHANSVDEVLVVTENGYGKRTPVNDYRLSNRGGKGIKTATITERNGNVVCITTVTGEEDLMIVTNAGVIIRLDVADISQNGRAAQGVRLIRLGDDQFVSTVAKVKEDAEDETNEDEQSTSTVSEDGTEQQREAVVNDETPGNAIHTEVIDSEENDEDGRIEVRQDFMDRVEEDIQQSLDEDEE
Method: The IC50 values for S. aureus GyrB were determined according to our previously reported protocol.[16] For this assay, the reaction mixture (10 μL) consisted of 5 nM S. aureus Gyrase (Inspiralis Ltd., Norwich, UK), assay buffer [40 mM HEPES-KOH (pH 7.6), 10 mM magnesium acetate, 10 mM dithiothreitol, 50 g/L BSA, and 500 mM potassium glutamate], the test compound (0.01–100 μM), 1% DMSO, 10 nM linear pBR322 DNA, and […]. The target compound was dissolved in DMSO (10 mM). A series of dilutions (0.1–1000 μM) were prepared from the stock solution with the assay buffer and DMSO. The dilutions (1 μL) were respectively added to the PCR tubes along with the buffer (7 μL), the linear pBR322 DNA (0.5 μL), S. aureus Gyrase (0.5 μL), and ATP (1 μL). The PCR tubes were sealed and incubated at 37 °C for 30 min. The ADP-Glo reagent (40 μL) was added to stop the reaction and use up the remaining ATP.
The detection reagent (50 μL) was then added and mixed. After 5 min, the mixture in each PCR tube was put in the well of a 96-well plate and its luminescence was measured by the BioTek Synergy 2 microplate reader. The activity values (%) of S. aureus Gyrase treated by the test compound at different concentrations were determined based on the luminescence. GraphPad Prism version 5 software (GraphPad Software Inc., La Jolla, CA) was used to calculate the IC50 values.

[4] = Cytotoxicity, SRB assay, HUVEC; format: cell-based, human; conditions: human, HUVEC cells, 72-h treatment (footnote), read-out: In vitro cytotoxicity CC50 (μM, mean ± SD)
Method: as §2

HUVECs = assay: Cytotoxicity, SRB assay, HUVEC; format: cell-based, human; conditions: 72-h treatment (footnote), read-out: In vitro cytotoxicity CC50 (μM, mean ± SD)
Method: as §2

Compound CCCCCc1nc2ccccc2c(=O)n1NC(=O)c1c(O)c2ccccc2n(CC)c1=O [f1, N-(4-oxo-2-pentylquinazolin-3(4H)-yl)-1-ethyl-4-hydroxy-2-oxo-1,2-dihydroquinoline-3-carboxamide] has an MIC (MRSA/VISA strains; ATCC 33591 / ATCC 43300 / ATCC 700699 / MRSA / VISA, span over ATCC 33591, ATCC 43300, 18-2, ATCC 700699, HIP 5836, HIP 5827, read-out: MICs for MRSA and VISA strains) of 4 to 16 µg/mL, an MIC (MRSA/VISA strains; span over tested MRSA/VISA strains, read-out: MICs for MRSA/VISA strains converted to) of 8.97 to 35.9 µM and an MIC ([1]; ATCC 33591 / MRSA, MRSA ATCC 33591, read-out: MIC) of 4 µg/mL (≈ 8.96 µM). It also gave an MIC ([1]; ATCC 43300 / MRSA, MRSA ATCC 43300, read-out: MIC) of 4 µg/mL (≈ 8.96 µM), an MIC ([1]; MRSA 18-2, read-out: MIC) of 8 µg/mL (≈ 17.9 µM) and an MIC ([1]; span over MRSA strains, read-out: MICs against MRSA) of 4 to 8 µg/mL (≈ 8.96 to 17.9 µM). For the same compound, the CC50 at 72 h [2] was about 50 µM, the CC50 (HepG2 cells) was 49.6 ± 0.2 µM and the MIC ([3]; ATCC 700699 / VISA, VISA ATCC 700699) was 8 µg/mL (≈ 17.9 µM). For the same compound, the MIC ([3]; VISA, VISA HIP 5827) was 4 µg/mL (≈ 8.96 µM), the MIC ([3]; VISA, VISA HIP 5836) was 16 µg/mL (≈ 35.8 µM) and the half-life at 1 µM (in vitro) was over 6.21 h. The IC50 (S. aureus GyrB; IC50 for GyrB (µM, mean ± SD), S. aureus Gyrase ATPase inhibition, average of duplicates) was 1.21 ± 0.13 µM, the inhibition at 10 µM (S. aureus GyrB; read-out: GyrB inhibition rate (%) at 10 μM) was 72% and the CC50 at 72 h [4] was about 50 µM. It also gave a CC50 (HUVECs) of 51.5 ± 4.5 µM.
